Active and inactive are the calls of the source.
How the values were obtained:
Paired box protein Pax-8 = Paired box protein Pax-8 (Homo sapiens, UniProt Q06710); test: inhibitors of PAX8-driven TPO luciferase reporter, dose response, RMG-I cells, cherry-pick (AID 687027); type: functional, cell-based;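 also: luciferase reporter driven by Pax8 target thyroperoxidase promoter measured by SteadyGlo luminescence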
BJ [1] = test: cells; type: functional, cell-based; details: Homo sapiens
[2] = cytotoxicity toward DRD oncogenic fibroblasts, dose response, cell-based, non-viral oncogenic, luminescence (AID 1934); type: functional; details: Homo sapiens
BJ [3] = test: cytotoxicity toward BJ-TERT-LT-ST fibroblasts, dose response, cell-based, RAS-independent, luminescence (AID 1935); type: functional; details: Homo sapiens;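 also: BJ fibroblasts immortalized with TERT plus LT and ST oncogenes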
BJ [4] = test: cytotoxicity toward BJ-TERT fibroblasts, dose response, cell-based, RAS-independent, luminescence (AID 1933); type: functional; details: Homo sapiens
[5] = molecular target: T1, RNA-binding protein pos-1 (Caenorhabditis elegans, UniProt G5EF15); test: inhibitors of POS-1/mex-3 RNA binding, dose response, biochemical, fluorescence polarization (AID 1964);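 also: purified POS-1 fused to maltose binding protein made in E. coli; potency of compounds blocking POS-1 binding to fluorescent RNA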
T1 sequence (G5EF15 whole entry): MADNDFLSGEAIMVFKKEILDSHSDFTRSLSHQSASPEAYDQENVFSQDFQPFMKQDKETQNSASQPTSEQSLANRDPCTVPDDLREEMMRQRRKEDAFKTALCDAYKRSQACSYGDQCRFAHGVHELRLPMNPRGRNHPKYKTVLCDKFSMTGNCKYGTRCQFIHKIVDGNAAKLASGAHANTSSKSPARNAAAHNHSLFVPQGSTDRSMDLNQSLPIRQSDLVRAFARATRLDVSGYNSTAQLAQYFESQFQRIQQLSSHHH

[6] = molecular target: T2, Zinc finger protein mex-5 (Caenorhabditis elegans, UniProt Q9XUB2); test: MEX-5/TCR-2 RNA interaction inhibitors, dose response, biochemical, C. elegans, fluorescence polarization (AID 1960)
T2 sequence (Q9XUB2 whole entry): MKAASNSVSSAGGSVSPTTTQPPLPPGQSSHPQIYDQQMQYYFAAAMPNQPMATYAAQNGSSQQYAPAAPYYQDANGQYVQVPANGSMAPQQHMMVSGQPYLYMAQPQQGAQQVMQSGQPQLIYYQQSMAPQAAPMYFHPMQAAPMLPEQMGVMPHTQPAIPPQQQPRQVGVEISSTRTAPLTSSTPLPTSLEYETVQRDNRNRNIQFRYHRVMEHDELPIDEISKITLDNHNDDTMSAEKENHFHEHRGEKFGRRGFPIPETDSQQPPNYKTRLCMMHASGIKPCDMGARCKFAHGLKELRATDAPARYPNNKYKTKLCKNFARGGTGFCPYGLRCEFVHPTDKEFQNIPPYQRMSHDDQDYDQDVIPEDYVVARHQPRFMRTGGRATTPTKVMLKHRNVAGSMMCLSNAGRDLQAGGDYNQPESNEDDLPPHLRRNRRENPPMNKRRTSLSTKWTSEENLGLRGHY

Large T antigen = Large T antigen (Simian virus 40, UniProt P03070); type: functional, Betapolyomavirus macacae;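 also: Confirmatory-stage PubChem screen for compounds that inhibit SV40 T antigen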
Sequence of Large T antigen (P03070 whole entry): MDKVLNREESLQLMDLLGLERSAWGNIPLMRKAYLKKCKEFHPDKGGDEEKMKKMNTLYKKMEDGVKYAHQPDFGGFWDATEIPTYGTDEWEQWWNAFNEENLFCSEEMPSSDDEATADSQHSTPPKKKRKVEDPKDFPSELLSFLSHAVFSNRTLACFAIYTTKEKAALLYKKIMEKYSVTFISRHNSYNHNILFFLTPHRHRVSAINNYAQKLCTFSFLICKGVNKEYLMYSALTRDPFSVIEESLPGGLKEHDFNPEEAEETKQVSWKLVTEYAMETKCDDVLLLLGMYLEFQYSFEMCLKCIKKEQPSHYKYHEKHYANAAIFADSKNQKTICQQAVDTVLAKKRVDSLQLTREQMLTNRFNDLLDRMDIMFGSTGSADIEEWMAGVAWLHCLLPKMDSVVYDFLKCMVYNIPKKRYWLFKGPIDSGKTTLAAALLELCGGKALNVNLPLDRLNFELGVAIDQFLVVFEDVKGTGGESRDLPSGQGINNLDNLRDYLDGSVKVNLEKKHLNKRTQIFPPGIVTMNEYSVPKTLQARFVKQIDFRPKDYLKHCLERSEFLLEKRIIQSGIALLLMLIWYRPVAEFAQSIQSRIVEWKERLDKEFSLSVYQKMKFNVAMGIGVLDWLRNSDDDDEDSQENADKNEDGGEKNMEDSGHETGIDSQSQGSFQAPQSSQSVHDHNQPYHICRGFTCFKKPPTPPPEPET

[7] = molecular target: T3, Calpain-2 catalytic subunit (Sus scrofa, UniProt P43367); test: pig calpain II inhibitor potency, dose response, biochemical, fluorogenic peptide substrate (AID 1420); type: functional
T3 sequence (P43367 whole entry): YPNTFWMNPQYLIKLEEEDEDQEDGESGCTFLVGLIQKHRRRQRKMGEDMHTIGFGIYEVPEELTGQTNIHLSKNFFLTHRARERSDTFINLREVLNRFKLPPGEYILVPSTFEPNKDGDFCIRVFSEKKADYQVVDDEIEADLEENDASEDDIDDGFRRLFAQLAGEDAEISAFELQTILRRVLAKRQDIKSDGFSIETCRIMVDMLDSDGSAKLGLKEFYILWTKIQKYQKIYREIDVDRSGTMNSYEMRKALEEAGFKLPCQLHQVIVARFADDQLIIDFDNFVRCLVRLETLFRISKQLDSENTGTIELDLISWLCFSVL

[8] = Luminescence Cell-Based Dose Confirmation HTS to Identify Inhibitors of Platelet Dense Granule Release. [Related pubchem assays: 1663 (Primary HTS), 1678 (Summary of Project)]; type: functional
[9] = molecular target: Luciferin 4-monooxygenase (Photinus pyralis, UniProt P08659); test: firefly luciferase enzyme inhibitors, dose response, biochemical, luminescence (AID 1891)
Sequence of Luciferin 4-monooxygenase (P08659 whole entry): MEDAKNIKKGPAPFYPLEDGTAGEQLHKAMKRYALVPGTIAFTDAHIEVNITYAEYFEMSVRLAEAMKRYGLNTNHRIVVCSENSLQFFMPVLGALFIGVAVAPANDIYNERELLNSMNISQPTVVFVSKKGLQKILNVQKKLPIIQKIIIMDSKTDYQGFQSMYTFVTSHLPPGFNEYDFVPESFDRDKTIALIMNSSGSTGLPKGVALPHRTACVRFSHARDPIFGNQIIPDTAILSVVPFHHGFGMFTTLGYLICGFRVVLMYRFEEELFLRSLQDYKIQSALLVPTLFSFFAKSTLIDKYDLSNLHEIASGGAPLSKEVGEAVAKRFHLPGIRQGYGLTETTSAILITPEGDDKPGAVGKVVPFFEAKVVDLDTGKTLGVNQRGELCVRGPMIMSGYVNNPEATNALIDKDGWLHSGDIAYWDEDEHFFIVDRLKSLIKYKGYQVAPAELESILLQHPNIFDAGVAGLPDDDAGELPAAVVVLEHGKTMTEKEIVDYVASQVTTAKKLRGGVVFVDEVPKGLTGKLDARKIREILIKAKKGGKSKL

Cytochrome P450 2C19 = Cytochrome P450 2C19 (Homo sapiens, UniProt P33261); test: Cytochrome panel assay with activity outcomes. Panel member name: p450-cyp2c19 Compounds with AC50 equal or less than 10 uM are considered active; type: functional; details: read-out: AC50
Sequence of Cytochrome P450 2C19 (P33261 whole entry): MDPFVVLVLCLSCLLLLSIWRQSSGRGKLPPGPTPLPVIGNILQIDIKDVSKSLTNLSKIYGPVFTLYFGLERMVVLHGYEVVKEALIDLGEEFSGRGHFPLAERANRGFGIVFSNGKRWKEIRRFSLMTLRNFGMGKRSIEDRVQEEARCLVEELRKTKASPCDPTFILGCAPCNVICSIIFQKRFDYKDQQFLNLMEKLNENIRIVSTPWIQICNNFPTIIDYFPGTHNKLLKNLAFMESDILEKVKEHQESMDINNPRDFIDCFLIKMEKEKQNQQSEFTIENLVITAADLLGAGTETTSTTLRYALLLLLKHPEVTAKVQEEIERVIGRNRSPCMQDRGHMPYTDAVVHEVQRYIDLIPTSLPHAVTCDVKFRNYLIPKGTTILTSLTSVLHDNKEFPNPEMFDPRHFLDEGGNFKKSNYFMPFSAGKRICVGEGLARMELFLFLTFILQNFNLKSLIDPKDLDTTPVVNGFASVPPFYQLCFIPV

Cytochrome P450 1A2 = molecular target: T4, Cytochrome P450 1A2 (Homo sapiens, UniProt P05177);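 also: PubChem cytochrome P450 panel assay, CYP1A2 panel member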
T4 sequence (P05177 whole entry): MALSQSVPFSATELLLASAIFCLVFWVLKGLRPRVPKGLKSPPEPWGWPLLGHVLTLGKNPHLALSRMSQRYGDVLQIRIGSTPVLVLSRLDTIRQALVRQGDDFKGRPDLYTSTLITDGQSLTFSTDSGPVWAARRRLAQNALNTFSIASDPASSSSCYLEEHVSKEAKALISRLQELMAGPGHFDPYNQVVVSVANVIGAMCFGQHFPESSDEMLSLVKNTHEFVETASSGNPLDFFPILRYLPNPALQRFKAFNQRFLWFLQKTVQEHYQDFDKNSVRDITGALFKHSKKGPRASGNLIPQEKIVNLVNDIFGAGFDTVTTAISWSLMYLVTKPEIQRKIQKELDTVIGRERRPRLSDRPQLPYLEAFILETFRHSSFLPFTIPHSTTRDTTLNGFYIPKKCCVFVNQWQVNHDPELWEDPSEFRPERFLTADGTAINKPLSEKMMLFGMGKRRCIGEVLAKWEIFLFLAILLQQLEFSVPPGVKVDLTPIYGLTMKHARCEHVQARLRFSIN

H9c2 = test: cells; type: functional, cell-based; details: Rattus norvegicus, H9c2, Myocardium;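 also: confirmatory concentration-response retest of ultra-high-throughput screening hits for modulation of myocardial damage; cell death induced by hydrogen peroxide oxidative stress; compound pretreatment for 60 min then peroxide exposure for 2 h; potency is for protecting the cells against peroxide damage rather than for killing them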
[10] = NIH-3T3 fibroblast cytotoxicity, dose response, cytotoxicity control, cell-based, fluorescence, Alamar Blue, secondary assay (AID 2327); type: functional;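 also: NIH-3T3 mouse fibroblasts cultured with fluconazole at 8 µg/mL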
[11] = C. albicans growth with fluconazole, confirmation, fluorescence, retest (AID 2467); type: functional, cell-based
[12] = molecular target: Heat shock protein HSP 90-alpha (Homo sapiens, UniProt P07900); type: functional, organism-based
[13] = molecular target: T5, Heat shock factor protein 1 (Mus musculus, UniProt P38532); test: inhibition of MG132-induced HSE-luciferase signal, confirmation, cell-based, NIH3T3, luminescence, dose retest (AID 2382); type: functional;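 also: NIH3T3 fibroblasts with HSF1-driven luciferase reporter stressed by proteasome inhibitor MG132; luminescence from HSF1-driven luciferase expression after 8 hours of MG132 stress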
T5 sequence (P38532 whole entry): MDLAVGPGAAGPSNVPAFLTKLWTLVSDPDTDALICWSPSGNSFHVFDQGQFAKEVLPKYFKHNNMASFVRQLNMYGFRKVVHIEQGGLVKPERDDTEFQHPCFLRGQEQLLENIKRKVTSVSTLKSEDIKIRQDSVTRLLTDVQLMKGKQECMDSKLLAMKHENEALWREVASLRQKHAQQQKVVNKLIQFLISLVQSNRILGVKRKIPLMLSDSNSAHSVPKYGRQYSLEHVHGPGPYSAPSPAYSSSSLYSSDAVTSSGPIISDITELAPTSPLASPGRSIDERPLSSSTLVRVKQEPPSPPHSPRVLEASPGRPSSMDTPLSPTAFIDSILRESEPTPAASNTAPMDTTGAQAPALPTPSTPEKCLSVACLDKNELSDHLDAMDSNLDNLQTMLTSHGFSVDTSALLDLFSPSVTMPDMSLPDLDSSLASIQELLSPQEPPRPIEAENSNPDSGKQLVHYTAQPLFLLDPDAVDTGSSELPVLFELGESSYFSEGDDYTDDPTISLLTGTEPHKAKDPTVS

[14] = Luminescence Cell-Based Dose Response HTS to Identify Activators of Luciferase Translation or Activity in H4 […] Cells. [Related pubchem assays: 1829 (Project Summary), 1814 (Primary HTS)]; type: functional
H4 = test: Luminescence Cell-Based Dose Response HTS to Identify Activators of 5'UTR Stem-Loop Driven Prion Protein mRNA Translation in H4 Neuroglioblastoma Cells. [Related pubchem assays: 1829 (Project Summary), 1814 (Primary HTS)]; type: functional; details: Homo sapiens
[15] = molecular target: T5, Heat shock factor protein 1; test: HSF1 potentiators in luciferase reporter cells, confirmation, cell-based, NIH3T3, luminescence, dose retest (AID 435004); type: functional;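 also: stress induced by proteasome inhibitor MG132 added 30 min after compound; luciferase reporter driven by HSF1 response element in NIH3T3 cells; actives raise luminescence as potentiators of the MG132 stress response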
INS1 = test: beta cell apoptosis inhibitors, cytokine rescue, dose response, luminescence, retest (AID 449756); type: functional, cell-based; details: Rattus norvegicus;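 also: cell death triggered by IL-1 beta plus TNF-alpha plus IFN-gamma mixture; protective hits raise ATP signal compared with cytokine alone wells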

Sequence of Paired box protein Pax-8 (Q06710 whole entry): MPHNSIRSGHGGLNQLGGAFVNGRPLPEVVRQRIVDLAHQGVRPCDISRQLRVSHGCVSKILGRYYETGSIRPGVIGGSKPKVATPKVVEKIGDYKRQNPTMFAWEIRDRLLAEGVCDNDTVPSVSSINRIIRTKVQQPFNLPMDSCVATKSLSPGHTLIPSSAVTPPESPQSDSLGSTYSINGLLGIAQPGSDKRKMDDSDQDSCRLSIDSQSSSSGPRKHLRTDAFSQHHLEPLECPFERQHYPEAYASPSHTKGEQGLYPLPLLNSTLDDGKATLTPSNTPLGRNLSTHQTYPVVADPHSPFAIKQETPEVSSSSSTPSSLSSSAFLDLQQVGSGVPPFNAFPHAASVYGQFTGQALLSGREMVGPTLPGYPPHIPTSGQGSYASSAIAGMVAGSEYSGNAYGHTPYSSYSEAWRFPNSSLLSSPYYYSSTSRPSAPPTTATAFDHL

O=C(CCCN1C(=O)/C(=C/c2cccc(Br)c2)SC1=S)Nc1ccccn1
AC50 (Paired box protein Pax-8): 5.71 µM (active)

CCOc1ncccc1C(=O)N1CCN(c2cccc(C)c2C)CC1
EC50 (BJ [1]): 37.3 µM (inconclusive) | EC50 [2]: 0.458 µM (active) | EC50 (BJ [3]): 0.349 µM (inconclusive) | EC50 (BJ [4]): 0.541 µM (active)

C/N=C1\S/C(=C\c2ccc(O)c(OC)c2)C(=O)N1C
EC50 [5]: > 300 µM (not active) | EC50 [6]: > 300 µM (not active) | IC50 (Large T antigen): 11.1 µM (active)

O=C1c2ccccc2C(=O)N1CCCC(=O)N1CCCc2ccccc21
IC50 [7]: > 50 µM (not active)

COCCNC(=S)N/N=C(\C)c1ccc(O)cc1
IC50 (Large T antigen): 10.8 µM (active)

COc1cc(/C=N/NC(N)=O)ccc1OCC(=O)N1C(C)CCCC1C (centres undefined)
EC50 [8]: 5.74 µM (active) | EC50 [9]: > 112 µM (not active)

COc1ccc(C(=O)N2CCCc3ccccc32)cc1
EC50 [8]: > 112 µM (not active) | EC50 [9]: > 112 µM (not active)

COc1ccc(/C=N/NC(=O)c2sccc2OCc2ccc(F)cc2)cc1OC
AC50 (Cytochrome P450 2C19): 17.8 µM (inconclusive) | AC50 (Cytochrome P450 1A2): 14.1 µM (inconclusive) | IC50 (H9c2): > 79 µM (inactive)

Cc1noc(/C=C/c2ccccn2)c1[N+](=O)[O-]
EC50 (BJ [1]): 24.5 µM (inconclusive) | EC50 [2]: 9.44 µM (active) | EC50 [10]: 3.04 µM (inconclusive) | EC50 (BJ [3]): 9.6 µM (active) | EC50 [11]: 2.97 µM (active) | EC50 (BJ [4]): 8.5 µM (active)

Cc1ccc(S(=O)(=O)NCC23C=CC(O2)C2C(=O)N(c4ccccc4)C(=O)C23)cc1 (centres undefined)
AC50 [12]: 17.7 µM (active)

Cc1ccc(/C=N/NC(=O)c2csc3c2CCCC3)cc1
EC50 (BJ [1]): 54.1 µM (active) | EC50 [2]: 1.9 µM (active) | EC50 (BJ [3]): 93.4 µM (active) | EC50 (BJ [4]): 2.46 µM (active)

COc1ccc(N2CCN(CCCn3c(=S)[nH]c4ncccc4c3=O)CC2)cc1
EC50 (BJ [1]): 44.2 µM (active) | EC50 [2]: 58.9 µM (active) | EC50 [13]: > 195 µM (not active) | EC50 (BJ [3]): > 150 µM (not active) | EC50 (BJ [4]): > 150 µM (not active)

CCNc1nc(NC#N)nc(SCC(=O)OCC)n1
EC50 [8]: > 112 µM (not active) | EC50 [9]: > 112 µM (not active)

CC(C)(C)c1ccc(CNc2ccc([N+](=O)[O-])cn2)cc1
IC50 [7]: 5.15 µM (active)

O=C(Nc1nccs1)C1CCN(S(=O)(=O)c2ccc(F)cc2)CC1
EC50 [8]: 18.6 µM (active) | EC50 [9]: > 112 µM (not active)

Cc1cc(NC(=O)CCN2C(=O)/C(=C/c3ccccc3Cl)SC2=S)no1
IC50 [7]: > 50 µM (not active)

CO[C@H]1CN(C)C(=O)c2cc(NC(=O)c3nc4ccccc4s3)ccc2OC[C@H](C)N(Cc2cccnc2)C[C@H]1C
AC50 (Paired box protein Pax-8): 18.8 µM (active)

CCOc1ccc(N2C(=O)/C(=C/c3ccccc3)N=C2SC)cc1
EC50 [14]: 0.135 µM (active) | EC50 (H4): 108 µM (active)

CC1=Nc2cc(C(=O)NCCCOC(C)C)ccc2Sc2ccc(C)cc21
EC50 (BJ [1]): 3.85 µM (inconclusive) | EC50 [2]: 2.86 µM (active) | EC50 (BJ [3]): 2.75 µM (active) | EC50 (BJ [4]): 2.72 µM (active)

O=c1cc(CN2CCN(c3ccccc3O)CC2)nc2sccn12
EC50 [8]: 53.2 µM (active) | EC50 [9]: > 112 µM (not active)

O=C(Cc1cn(Cc2cccc(Cl)c2)c2ccccc12)N1CCCC1
IC50 [7]: 17.1 µM (not active)

CCn1c(CNc2ccc(Cl)cc2)nnc1SCc1ccccc1
AC50 [12]: 1.57 µM (active)

CSc1ccc(/C=C2\C(=N)N3N=C(CC(=O)N4CCOCC4)SC3=NC2=O)cc1
EC50 [8]: > 112 µM (not active) | EC50 [9]: > 112 µM (not active)

Cc1ccc(-c2nnc(Nc3ccc(O)cc3)c3ccccc23)cc1S(=O)(=O)NCCO
IC50 (Large T antigen): 13.2 µM (active)

CCOC(=O)c1ccc(N2C(=O)CC(N3CCC(Nc4ccc(F)cc4)CC3)C2=O)cc1 (centres undefined)
EC50 [15]: > 260 µM (inactive) | AC50 [12]: 3.01 µM (active)

O=C(Nc1ccc(F)cc1)C1CCCCC1
EC50 [8]: > 112 µM (not active) | EC50 [9]: > 112 µM (not active)

CCN(CC)S(=O)(=O)c1cc(OCC(N)=O)c(C)cc1Cl
EC50 [8]: > 112 µM (not active) | EC50 [9]: > 112 µM (not active)

CCCn1c(=O)c2[nH]c(-c3ccc(OCC(=O)Nc4ccc(C#N)cc4)cc3)nc2n(CCC)c1=O
AC50 (Cytochrome P450 1A2): 31.6 µM (inconclusive) | IC50 (H9c2): > 79 µM (inactive)

Nc1cc(Oc2cccnc2)cc([N+](=O)[O-])c1
IC50 [7]: > 50 µM (not active)

CCCCCCCCNC(=O)c1ccc(C)cc1
IC50 [7]: 10.1 µM (not active)

O=C(CSc1nc2ccccc2c(=O)n1-c1ccccc1)N1CCc2ccccc2C1
AC50 (INS1): 3.61 µM (active)

CCCCSc1nnc(-c2ccccc2)c2ccccc12
IC50 [7]: 9.31 µM (not active)

C(=N\Nc1nc2ccccc2[nH]1)/c1cccs1
IC50 (Large T antigen): 16.9 µM (active)

O=C(NC1CCCCC1)C1c2ccccc2C(=O)N1Cc1ccc2c(c1)OCO2 (centres undefined)
IC50 [7]: 20.2 µM (not active)

Cc1cccc(Oc2cc(N)cc([N+](=O)[O-])c2)c1
IC50 [7]: > 50 µM (not active)

Cc1ccc(C(=O)N/C(=C\c2ccc(-c3ccccc3[N+](=O)[O-])o2)C(=O)NCCCN2CCOCC2)cc1
AC50 (INS1): 6.33 µM (active)
